Test results published in PubChem BioAssay (NCI).
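Method: 48-hour compound exposure of cells in 96-well plates, five concentrations, linear interpolation of endpoints. TGI denotes the concentration required for complete inhibition of growth.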

What was measured:
Assay in all cases: inhibition of tumour cell growth, NCI panel, 48 h
[1] = test system: RXF 393 renal
[2] = test system: IGROV1 ovarian
[3] = test system: SNB-75 CNS
[4] = test system: NCI-H23 lung
[5] = test system: SF-539 CNS
[6] = test system: HCT-15 colon
[7] = test system: 786-0 renal
[8] = test system: NCI-H460 lung
[9] = test system: COLO 205 colon
[10] = test system: PC-3 prostate
[11] = test system: SK-MEL-5 melanoma
[12] = test system: CCRF-CEM leukemia
[13] = test system: MDA-N
[14] = test system: NCI/ADR-RES ovarian
[15] = test system: LOX IMVI melanoma
[16] = test system: SW-620 colon
[17] = test system: CAKI-1 renal
[18] = test system: SK-OV-3 ovarian
[19] = test system: SF-268 CNS
[20] = test system: HOP-62 NSCLC
[21] = test system: OVCAR-5 ovarian
[22] = test system: MDA-MB-231 breast
[23] = test system: HCC-2998 colon
[24] = test system: UO-31 renal
[25] = test system: MOLT-4 leukemia
[26] = test system: T-47D breast
[27] = test system: NCI-H226 lung
[28] = test system: U251 CNS
[29] = test system: SN12C renal
[30] = test system: A498 renal
[31] = test system: HL-60(TB) leukemia
[32] = test system: M14 melanoma
[33] = test system: SNB-19 CNS
[34] = test system: NCI-H522 lung
[35] = test system: HS 578T breast
[36] = test system: ACHN renal
[37] = test system: DU-145 prostate
[38] = test system: EKVX NSCLC
[39] = test system: MDA-MB-435
[40] = test system: OVCAR-4 ovarian
[41] = test system: HT29 colon
[42] = test system: HOP-92 NSCLC
[43] = test system: A549 NSCLC
[44] = test system: UACC-62 melanoma
[45] = test system: SF-295 CNS
[46] = test system: HCT-116 colon
[47] = test system: MCF7 breast
[48] = test system: K-562 leukemia
[49] = test system: BT-549 breast
[50] = test system: OVCAR-3 ovarian
[51] = test system: TK-10 renal
[52] = test system: KM12 colon
[53] = test system: OVCAR-8 ovarian
[54] = test system: UACC-257 melanoma
[55] = test system: RPMI-8226 leukemia
[56] = test system: SK-MEL-2 melanoma
[57] = test system: MALME-3M melanoma
[58] = test system: SR leukemia

Structure (SMILES): O=c1[nH]c2ccccc2c(O)c1/C=N/C(=S)NC1CCCCC1
- TGI [1]: > 100 µM
- TGI [2]: > 100 µM
- TGI [3]: > 100 µM
- TGI [4]: > 100 µM
- TGI [5]: > 100 µM
- TGI [6]: > 100 µM
- TGI [7]: > 100 µM
- TGI [8]: > 100 µM
- TGI [9]: > 100 µM
- TGI [10]: > 100 µM
- TGI [11]: > 100 µM
- TGI [12]: > 100 µM
- TGI [13]: > 100 µM
- TGI [14]: > 100 µM
- TGI [15]: > 100 µM
- TGI [16]: > 100 µM
- TGI [17]: > 100 µM
- TGI [18]: > 100 µM
- TGI [19]: > 100 µM
- TGI [20]: > 100 µM
- TGI [21]: > 100 µM
- TGI [22]: > 100 µM
- TGI [23]: > 100 µM
- TGI [24]: > 100 µM
- TGI [25]: > 100 µM
- TGI [26]: > 100 µM
- TGI [27]: > 100 µM
- TGI [28]: > 100 µM
- TGI [29]: > 100 µM
- TGI [30]: > 100 µM
- TGI [31]: > 100 µM
- TGI [32]: > 100 µM
- TGI [33]: > 100 µM
- TGI [34]: > 100 µM
- TGI [35]: > 100 µM
- TGI [36]: > 100 µM
- TGI [37]: > 100 µM
- TGI [38]: > 100 µM
- TGI [39]: > 100 µM
- TGI [40]: > 100 µM
- TGI [41]: > 100 µM
- TGI [42]: > 100 µM
- TGI [43]: > 100 µM
- TGI [44]: > 100 µM
- TGI [45]: > 100 µM
- TGI [46]: > 100 µM
- TGI [47]: > 100 µM
- TGI [48]: > 100 µM
- TGI [49]: > 100 µM
- TGI [50]: > 100 µM
- TGI [51]: > 100 µM
- TGI [52]: > 100 µM
- TGI [53]: > 100 µM
- TGI [54]: > 100 µM
- TGI [55]: > 100 µM
- TGI [56]: > 100 µM

Structure (SMILES): C/C(=N\Nc1nc2ccccc2[nH]1)c1ncccn1
- TGI [1]: > 32.5 µM
- TGI [2]: 9.41 µM
- TGI [3]: > 90.3 µM
- TGI [4]: 8.58 µM
- TGI [5]: 0.0543 µM
- TGI [6]: > 100 µM
- TGI [7]: > 100 µM
- TGI [8]: > 100 µM
- TGI [9]: > 49.6 µM
- TGI [10]: > 66 µM
- TGI [11]: 1.34 µM
- TGI [12]: > 100 µM
- TGI [13]: > 100 µM
- TGI [14]: 0.426 µM
- TGI [15]: > 100 µM
- TGI [16]: > 100 µM
- TGI [17]: 23.7 µM
- TGI [18]: > 100 µM
- TGI [19]: > 93.3 µM
- TGI [20]: 49.4 µM
- TGI [21]: > 100 µM
- TGI [22]: > 29.2 µM
- TGI [23]: > 100 µM
- TGI [57]: 8.89 µM
- TGI [25]: > 100 µM
- TGI [26]: > 100 µM
- TGI [28]: > 100 µM
- TGI [29]: 0.991 µM
- TGI [30]: 2.23 µM
- TGI [31]: 0.0343 µM
- TGI [32]: 0.322 µM
- TGI [33]: > 100 µM
- TGI [34]: > 64.3 µM
- TGI [58]: > 100 µM
- TGI [35]: > 100 µM
- TGI [36]: 0.201 µM
- TGI [37]: > 100 µM
- TGI [38]: 25.8 µM
- TGI [40]: > 100 µM
- TGI [42]: 1.93 µM
- TGI [43]: > 93 µM
- TGI [44]: 2.88 µM
- TGI [45]: > 100 µM
- TGI [46]: 1.74 µM
- TGI [48]: > 100 µM
- TGI [49]: > 100 µM
- TGI [50]: 6.7 µM
- TGI [51]: > 78.1 µM
- TGI [52]: > 46.9 µM
- TGI [53]: > 39 µM
- TGI [54]: > 35.2 µM
- TGI [56]: 17.7 µM
